Laboratory results taken from publication PMC2944077, “Placental Transfer of Conjugated Bisphenol A and Subsequent Reactivation in the Rat Fetus” (Environmental Health Perspectives, 2010).

Tests used:
[1] = Uterine perfusion of pregnant rats with glucuronide substrate; distribution in maternal-placental-fetal unit; assay type: in vivo, rat; conditions: for Amount of substrate (glucuronide) detected in perfusate (maternal side): 2 μM substrate 20 min (120 nmol total) then 70 min without substrate
From the text: Additional details of the surgical procedure are available in the Supplemental Material (doi:10.1289/ehp.0901575). In this perfusion system, the perfusate pumped into the abdominal aorta is circulated through one uterine artery– placenta–fetus–uterine vein unit and drips from the drain tube inserted in the caudal vein. After the perfusion, dams and fetuses were euthanized by incision of the caudal vena cava under anesthesia and tissues were collected.
We used modified Krebs-Ringer’s buffer (mKRB; 126 mM NaCl, 3 mM KCl, 1.2 mM KH2PO4, 1.3 mM MgSO4, 2.4 mM CaCl2, 10 mM glucose, 26 mM NaHCO3, 2.5% dextran from Leuconostoc mesenteroides, and 3% Dextran 70) as the perfusate. The perfusate was pumped at a constant rate of 3 mL/min. First, we perfused four animals in a preliminary group with 10 μM BPA-GA for 20 min to determine whether BPA-GA is transferred into the fetus across the placenta. In this group, we performed a preliminary perfusion with mKRB for 5 min to wash away blood, followed by 20 min inflow of mKRB containing 10 μM BPA-GA. After the perfusion, the fetus and amniotic fluid were collected.
To elucidate the kinetics of perfused BPA-GA, we used another group of four animals to compare the amount of BPA-GA in maternal veins with that in fetal tissue. After preliminary perfusion with mKRB for 5 min, pregnant rats were perfused with mKRB containing 2 μM BPA-GA for 20 min. Then, mKRB without BPA-GA was perfused for 70 min (a total of 90 min). From the beginning of the BPA-GA perfusion, the perfusate that drained from the caudal vena cava was collected from each animal at 5-min intervals for 90 min. At the end of perfusate collection, the fetus, amnion, amniotic fluid, uterus, and placenta were collected. We also performed a control study using 1-naphthol-glucuronide (1-NA-GA; Nacalai Tesque Inc., Kyoto, Japan) as the substrate. Four pregnant rats were used in each perfusion group. […]
Perfusates collected from the caudal vena cava were collected after uterine perfusion and prepared for HPLC and LC/TOF-MS analysis. Each perfusate sample was mixed with a 4-fold volume of acetonitrile and centrifuged at 13,000 rpm for 5 min at 4°C; each supernatant was then analyzed by HPLC.
To prepare tissues for HPLC and LC/TOF-MS analysis, we first added each sample to 0.3 mL methanol; the sample was homogenized and then sonicated for 5 min. The products were centrifuged at 13,000 rpm for 5 min at 4°C, and the supernatants were concentrated by solid-phase extraction using an Oasis HLB Plus cartridge (Waters Corp., Milford, MA, USA). The extracts were then analyzed by HPLC.
We used an HPLC system (Tosoh Corp., Tokyo, Japan) that consisted of a dual pump (DP-8020), a fluorescent photometer (FS-8020), and a column oven (CO-8020). Samples were separated at 40°C using a reverse-phase column (Unison UK-C18; Imtakt Corp., Kyoto, Japan) at a flow rate of 1.0 mL/min under a linear gradient of solution A (methanol/water = 24/76 vol/vol with 10 mM ammonium acetate) and solution B (methanol) for 20 min. BPA-GA was detected at excitation/emission of 275/308 nm and 1-NA-GA was detected at excitation/emission of 283/336 nm. The results were recorded using LC-8020 integration software (Tosoh Corp.); the elution peaks of BPA and BPA-GA were noted and the concentrations compared with the standards.
LC/TOF-MS was performed using the HPLC system described above and LCT premier XE (Waters Corp.). The flow rate of HPLC was 0.3 mL/min, and BPA-GA was monitored at m/z 403–404 by TOF-MS. In the present study, the limits of detection of BPA and BPA-GA in LC/TOF-MS were both 20 pmol/mL (data not shown).

[2] = design: method as in Krishnan et al. 1993; Nagel et al. 1997; conditions: in vivo and in vitro; ref Krishnan et al. 1993; Nagel et al. 1997; cited from earlier work
[3] = system: CD-1 mice; design: method as in Timms et al. 2005; conditions: 10 μg/kg BPA/day; ref Timms et al. 2005; cited from earlier work
[4] = system: UGT; test: UGT enzyme analysis using hepatic microsomes; assay type: in vitro ADME, rat
From the text: We examined UGT enzymatic activity using hepatic microsomes. We prepared the microsomes from rat liver and performed UGT enzyme analysis as described previously by [Daidoji et al (2006)]. See the Supplemental Material (doi:10.1289/ehp.0901575) for details.
Figure 6 Metabolism of BPA-GA in the fetus. Abbreviations: H, fetal heart; L, fetal liver; ML, maternal liver; P, placenta. (A) Time course showing concentration of deconjugated BPA (mean ± SE) in the extract of cultured fetal liver and heart cells (see “Materials and Methods” for details; n = 5). (B) Expression of β-Gase in the fetal liver and heart on GD18.5 by RT-PCR. (C) Expression of UGT isoforms in ML, P, L, and […] determined by RT-PCR. […] Values shown are the concentration (mean ± SE) of glucuronide conjugates in microsome protein (nmol/μg) after 30-min reaction time (n = 5).

[5] = oral 10 mg/kg BPA to GD16.0 rat mothers; ref Domoradzki et al. (2003); cited from earlier work
[6] = system: UGT; conditions: GD19.0; ref Matsumoto et al. 2002; cited from earlier work
[7] = design: method as in Matthews et al. 2001; conditions: ref Matthews et al. 2001; cited from earlier work
[8] = system: placental trophoblast primary cell culture; test: Deconjugation of BPA-GA in placental trophoblast primary cell culture; assay type: in vitro ADME, rat; conditions: data not shown
Description: After co-incubation with BPA-GA, we detected deconjugated BPA in fetal liver and to a small degree in fetal heart (Figure 6A). We observed β-Gase expression in both tissues (Figure 6B). […] The difference in deconjugation rates among tissues in the present study may reflect uptake into cells via transporters rather than through β-Gase expression. Another possibility is that BPA-GA is deconjugated in the placenta and then resultant BPA is transferred into the fetus by passive diffusion. Therefore, we also examined deconjugation of BPA-GA in placental trophoblast primary cell culture. […] The possibility of transfer of placental deconjugated BPA could not be excluded completely in this experiment. Further work is required to examine the tissue-specific deconjugation of BPA-GA and the possibility of BPA transfer.

[9] = system: fetal heart cells; test: Incubation of fetal primary cell cultures with BPA-GA (deconjugation); assay type: in vitro ADME, rat; conditions: 25 μM BPA-GA, 37°C, 10-120 min, GD18.5
Description: (§1) Fetal liver and heart tissues, collected on GD18.5, were washed twice with cold phosphate-buffered saline (PBS). Tissues for two fetuses were combined in one tube and then minced in cold PBS and centrifuged for 5 min at 100 × g at 4°C. After removing the supernatant, the pellets were resuspended in 5 mL William’s medium (Sigma-Aldrich, Inc., St. Louis, MO, USA) containing collagenase (350 U; Wako Pure Chemical Industries, Ltd., Osaka, Japan) and DNase I (375 U; Roche Diagnostics, Basel, Switzerland) and incubated for 30 min at 37°C. After the incubation, samples were centrifuged for 5 min at 100 × g at 4°C, and the supernatants were removed. The remaining cells, which had been isolated from two fetuses, were resuspended in 200 μL William’s medium with or without 25 μM BPA-GA and incubated at 37°C for 10, 30, 60, or 120 min. At each time point, cells and medium were pooled and extracts were prepared for HPLC as described above, by adding the same volume of methanol. All experiments were repeated five times. Values express the mean ± SE.

[10] = system: fetal liver cells; test: as above; assay type: in vitro ADME, rat; conditions: 25 μM BPA-GA, 37°C, 10-120 min, GD18.5
Description: as §1

[11] = 2 μM substrate 20 min then 70 min without substrate, GD18.5, mean ± SD, n = 4

## O=C(O)[C@H]1O[C@@H](Oc2cccc3ccccc23)[C@H](O)[C@@H](O)[C@@H]1O [1-NA-GA, 1-naphthol-glucuronide, reference compound]
[1]; GD18.5, mean ± SD, n = 4
  Amount of substrate (glucuronide) detected in perfusate (maternal side): 111.77 ± 2.58 nmol

## CC(C)(c1ccc(O)cc1)c1ccc(O)cc1 [BPA, Bisphenol A]
[2]
  Estrogenic activity: weak estrogenic activity
[3]
  Effect of maternal exposure on prostate and urethra in male fetuses: induces abnormal development of the prostate and urethra
[4]; late pregnancy, in theory, from 20% of maternal and 70% pregnant/nonpregnant
  Fetal UGT activity toward BPA relative to nonpregnant adult rats: < 15%
[4]; liver microsomes, GD18.5
  UGT activities in fetal liver microsomes compared with those in the mother: quite low
[4]; liver microsomes, GD18.5, 30-min reaction
  Fetal UGT activity toward substrate relative to maternal microsomes: about 20%
[5]
  Concentration of BPA-GA in the fetus compared with that in maternal plasma: approximately 0.1%
[6]
  UGT activity toward BPA in pregnant rats relative to nonpregnant adult rats: about 70%

## CC(C)(c1ccc(O)cc1)c1ccc(O[C@@H]2O[C@H](C(=O)O)[C@@H](O)[C@H](O)[C@H]2O)cc1 [BPA-GA, BPA-glucuronide]
[1]; 2 μM BPA-GA 20 min, total perfusion 90 min
  Share of the total amount of BPA-GA detected in the fetus: about 0.09%
[1]; 2 μM BPA-GA 20 min then perfusion without BPA-GA, n = 4
  BPA-GA in the collected perfusate after 70 min: barely detected
[1]; GD18.5, mean ± SD, n = 4
  Amount of substrate (glucuronide) detected in perfusate (maternal side): 113.10 ± 6.92 nmol
[1]; [11]
  Amount of deconjugated substrate (BPA or 1NA) detected in amniotic fluid: 31.35 ± 4.52 pmol
  Amount of deconjugated substrate (BPA or 1NA) detected in fetus: 6.45 ± 1.45 pmol
  Amount of substrate (glucuronide) detected in fetus: 109.26 ± 36.75 pmol
[1]; 10 μM BPA-GA, 20-min inflow, HPLC
  Deconjugated BPA in the fetus and amniotic fluid after preliminary perfusion: detected
[1]; 10 μM BPA-GA, 20-min inflow, HPLC, confirmed by LC/TOF-MS
  BPA-GA in the fetus and amniotic fluid after preliminary perfusion: detected
[7]
  Biological activity of metabolite: biologically inactive
[8]
  Deconjugation of BPA-GA in trophoblast cells: did not observe deconjugation
[9]
  Deconjugation of BPA-GA to BPA in fetal heart cells: to a much smaller degree
[10]
  Deconjugation of BPA-GA to BPA in fetal liver cells: in a time-dependent manner
